The text below walks through data of ChEMBL document CHEMBL1944615, “Synthesis and biological evaluation of deoxy-hematoxylin derivatives as a novel class of anti-HIV-1 agents” (Bioorg Med Chem Lett, 2012).

In general, IC50 refers to the concentration at which inhibition is half-maximal. By CC50 is commonly meant the concentration that lowers cell viability or growth by half. A high value points to lower toxicity to the cells.

Series [1] relates to Human immunodeficiency virus 1. Kind of series: Antiviral activity against HIV1 NF-462 expressing wild-type Vpr infected in human 293T cells containing 4 ng of viral p24 antigen after 8 days by ELISA. It is filed as functional, organism-based. (In general: An ELISA detects its analyte on a solid surface through an enzyme-linked reagent.)
The nature of series [2]: Inhibition of HIV1 VPR/human importin-alpha interaction in human HeLa cells assessed as inhibition of nuclear import of preintegral complex after 15 mins by confocal laser scanning microscopic analysis. It counts as cell-based.
Series [3] relates to Human immunodeficiency virus 1. In words: Antiviral activity against HIV1 NL432 infected in human TZM-Bl cells assessed as inhibition of viral replication after 2 days by luciferase reporter gene analysis. It is filed as functional, organism-based.
The nature of series [4]: Cytotoxicity against human MOLT4 cells expressing CD4+ after 2 days by MTT assay. It is filed as cell-based, MOLT-4.
In series [5] the test system is Human immunodeficiency virus 1. In words: Antiviral activity against HIV1 NL432 infected in human ConA and IL2-stimulated PBMC assessed as inhibition of viral replication by reverse transcriptase assay. It counts as functional, organism-based.
Series [6] has as its system Human immunodeficiency virus 1. In words: Antiviral activity against HIV1 NF-462 expressing wild-type Vpr infected in human 293T cells containing 4 ng of viral p24 antigen after 8 days by ELISA relative to hematoxylin. It is filed as functional.
Series [7] deals with Human immunodeficiency virus 1. Kind of series: Antiviral activity against HIV1 NF-462 expressing wild-type Vpr infected in human 293T cells containing 1 ng of viral p24 antigen after 8 days by ELISA relative to hematoxylin. It counts as functional.
[8] abbreviates: Human immunodeficiency virus 1, NF-462, HEK-293T, 192 h, read-out: IC50.
Setting [9] is: Human immunodeficiency virus 1, NL432, TZM-bl, 48 h, read-out: IC50.
[10] abbreviates: Human immunodeficiency virus 1, NL432, read-out: IC50.

For the compound `CC1(C)Oc2cc3c(cc2O1)[C@@H]1c2cccc(OCc4ccccc4)c2OC[C@]1(O)C3`, the IC50 entry in series [1] (293t) is “Not Active”; in series [2], 0.8 µM; in series [3] (tzm-bl), “Not Active”. The CC50 at 48 h in series [4] is greater than 80 µM.

On to `Oc1cc2c(cc1O)[C@@H]1c3ccc(O)c(O)c3OC[C@]1(O)C2` [HEMATOXYLIN], for which the IC50 in series [1] (setting [8]) is less than 1 µM; in series [5] it was “ND(toxic)”; in series [2], 1.3 µM; in series [3] (setting [9]), 100 µM. Half-maximal cytotoxicity in series [4] (CC50 at 48 h) was put at 40 µM.

On to `Oc1ccc2c(c1)C[C@@]1(O)COc3ccccc3[C@@H]21`, for which the IC50 in series [1] (setting [8]) is 0.9 µM; in series [5] (setting [10]), 25.1 µM; in series [2] it was 0.6 µM; in series [3] (setting [9]), 67.6 µM. In addition, in series [4], the CC50 at 48 h amounted to 82 µM.

`O[C@]12COc3ccccc3[C@H]1c1ccccc1C2`: the IC50 in series [2] is 2.7 µM; in series [3] (tzm-bl) it was “Not Active”. This compound also registered a CC50 at 48 h in series [4] greater than 100 µM.

Turning to `Oc1cc2c(cc1O)[C@@H]1c3cccc(O)c3OC[C@]1(O)C2`, the IC50 in series [1] (setting [8]) is 0.4 µM; in series [5], “ND(toxic)”; in series [2], 0.9 µM; in series [3] (tzm-bl) it was “ND(toxic)”. The midpoint of cytotoxicity in series [4], the CC50 at 48 h, lay at 32 µM.

`Oc1cc2c(cc1O)[C@@H]1c3ccccc3OC[C@]1(O)C2`: the IC50 in series [2] was 1.9 µM; in series [3] (tzm-bl), “ND(toxic)”. In addition, the CC50 at 48 h in series [4] was found to be 1.9 µM.

For `CC1(C)Oc2cc3c(cc2O1)[C@@H]1c2cccc(O)c2OC[C@]1(O)C3`, the IC50 in series [1] (setting [8]) was found to be 0.1 µM; in series [5] (setting [10]), 30.1 µM; in series [2], 0.5 µM; in series [3] (setting [9]), 24.6 µM. Moreover, the “Ratio IC50” value in series [6] was found to be 10; in series [7] it was 2. Besides, the CC50 at 48 h in series [4] was greater than 80 µM.
